Experiments:
[1] = Chemical hydrolysis in PBS, pH 7.3; format: physicochemical; conditions: PBS pH 7.3, 37 °C; for t1/2(1) PBS, pH=7.3: removal of first masking unit (half-lives of 3); for t1/2(2) PBS, pH=7.3: second hydrolysis step, half-lives of intermediate 4 to give d4TTP 19
Experimental: Stock solutions (50 mM in DMSO-d6) of the appropriate compounds were prepared. After dilution of 11 μl with 100 μl Millipore water and 189 μl DMSO-d6 to 1.9 mM hydrolysis solutions the reaction was started by the addition of 300 μl PBS (50 mM, pH 7.3). The solution was incubated at 37 °C in a thermomixer. An initial aliquot (25 μl) was taken directly and analysed by analytical HPLC at 265–266 nm. Further aliquots were taken for monitoring the kinetic hydrolysis. The exponential decay curves (pseudo-first order) based on absolute integral values were calculated with commercially available software (OriginPro 9.0G) and yielded the half-lives t1/2(1) and t1/2(2) of the prodrugs via one determination.

pig liver esterase (PLE) = assay: Enzymatic hydrolysis with pig liver esterase (PLE) in PBS; format: in vitro ADME; conditions: PLE in PBS pH 7.3, 37 °C; for t1/2(1) PLE: removal of first masking unit (half-lives of 3); for t1/2(2) PLE: second hydrolysis step, half-lives of intermediate 4
Experimental: Furthermore, 140 μl of the 6.0 mM solution was diluted with 105 μl DMSO-d6 and 700 μl 50 mM PBS buffer. The reaction was started by addition of 52.5 μl of PLE in PBS buffer (3 mg ml^−1) and the mixture was incubated at 37 °C in a thermomixer. At different times, aliquots (125 μl) were taken and treated as follows: (a) for 3a–g,l,m and 4a,e the reaction was stopped by addition to 132.5 μl MeOH. […] (b) For 3h,i,k,n and 4j, the sample was directly frozen in liquid nitrogen.

HIV-1(IIIB) = assay: Anti-HIV activity assay, HIV-1 in wild-type CEM/0 cells; format: cell-based; conditions: HIV-induced giant cell formation, mean±s.d., n=2–3
Experimental: (§1) Inhibition of HIV-1(IIIB)- and HIV-2(ROD)-induced cytopathicity in wild-type CEM/0 and TK-deficient CEM/TK^− cell cultures was measured in microtitre 96-well plates containing ∼3 × 10^5 CEM cells ml^−1 infected with 100 CCID50 of HIV per millilitre and containing appropriate dilutions of the test compounds. After 4−5 days of incubation at 37 °C in a CO2-controlled humidified atmosphere, CEM giant (syncytium) cell formation was examined microscopically. The EC50 (50% effective concentration) was defined as the compound concentration required to inhibit HIV-induced giant cell formation by 50%.

HIV-2(ROD) [2] = assay: Anti-HIV activity assay, HIV-2 in wild-type CEM/0 cells; format: cell-based; conditions: wild-type CEM cells, HIV-induced giant cell formation; mean±s.d., n=2–3; read-out: EC50 CEM HIV-2
Experimental: as §1

HIV-2(ROD) [3] = assay: Anti-HIV activity assay, HIV-2 in TK-deficient CEM/TK− cells; format: cell-based; conditions: thymidine kinase-deficient CEM/TK− cells; mean±s.d., n=2–3
Experimental: as §1

CD4+ T-cell (CEM) = assay: Cytotoxicity: inhibition of CEM cell proliferation; format: cell-based, human; conditions: 50% cytostatic concentration, mean±s.d., n=2–3
[4] = Enzyme-catalysed hydrolysis in CEM cell extracts; conditions: for t1/2(1) CEM: human CEM cell extract, 37 °C
Experimental: The hydrolysis mixtures were analysed by means of analytical RP-18-HPLC.
A volume of 10 μl of the appropriate 50 mM DMSO-d6 stock solution was diluted to 6.0 mM hydrolysis solution by addition of 73.3 μl DMSO-d6. Seven different samples including 10 μl water and 10 μl hydrolysis solution were prepared. The reaction was started by addition of 50 μl human CEM cell extract and the mixture was incubated at 37 °C for different time periods of hydrolysis. The work-up depended on the particular compound: (a) for 3a–f,l,m,p and 4a,e the reactions were stopped by addition of 150 μl MeOH. The solution was kept on ice for 5 min followed by centrifugation for 5 min (13,000 r.p.m.). The supernatants were filtered (Chromafil RC-20/15 MS, 0.2 μm) and stored in liquid nitrogen. (b) For 3g–i,k,n and 4j, the samples were directly frozen in liquid nitrogen. The solution was defrosted followed by ultrasonication for 10 min. After centrifugation for 5 min the supernatants were filtered (Chromafil AO-20/3, 0.2 μm) and stored at −196 °C. (c) For 3j the mixture was diluted with 70 μl THF (HPLC grade) and frozen in liquid nitrogen followed by defrosting, ultrasonication, centrifugation, filtration and stored as described for (b). Samples were defrosted and 50–80 μl were subjected to HPLC analysis.
Human CD4^+ T-lymphocyte CEM cells were grown in RPMI-1640-based cell culture medium to a final density of ∼3·10^6 cells ml^−1. Then, cells were centrifuged for 10 min at 1,250 r.p.m. at 4 °C, washed twice with cold PBS and the pellet was resuspended at 10^8 cells ml^−1 and sonicated (Hielscher Ultrasound Techn., 100% amplitude, three·times for 10 s) to destroy cell integrity. The resulting cell suspension was then centrifuged at 10,000 r.p.m. to remove cell debris, and the supernatant divided into aliquots before being frozen at −80 °C and used.

| SMILES | t1/2(1) PBS, pH=7.3 [1] [h] | t1/2(2) PBS, pH=7.3 [1] [h] | t1/2(1) PLE (pig liver esterase (PLE)) [h] | t1/2(2) PLE (pig liver esterase (PLE)) [h] | EC50 (HIV-1(IIIB)) [µM] | EC50 (HIV-2(ROD) [2]) [µM] | EC50 (HIV-2(ROD) [3]) [µM] | t1/2(1) CEM [4] [h] | CC50 (CD4+ T-cell (CEM)) [µM] | t1/2 in cell extracts ([4]; degradation of the nucleotide in CEM cell extracts) [h] |
| --- | --- | --- | --- | --- | --- | --- | --- | --- | --- | --- |
| CC(=O)Oc1ccc(COP(=O)(OCc2ccc(OC(C)=O)cc2)OP(=O)(O)OP(=O)(O)OC[C@@H]2C=C[C@H](n3cc(C)c(=O)[nH]c3=O)O2)cc1 [3a, γ-Bis-(4-acetyloxybenzyl)-d4TTP] | 18 | 75 | 1.9 | 71 | 0.43 ± 0.25 | 0.72 ± 0.16 | > 10 | 0.050 | 63 ± 2 | – |
| CCC(=O)Oc1ccc(COP(=O)(OCc2ccc(OC(=O)CC)cc2)OP(=O)(O)OP(=O)(O)OC[C@@H]2C=C[C@H](n3cc(C)c(=O)[nH]c3=O)O2)cc1 [3b, γ-Bis-(4-propanoyloxybenzyl)-d4TTP] | 17 | 150 | 0.42 | 33 | 0.46 ± 0.21 | 1.16 ± 0.15 | > 10 | 0.12 | 57 ± 6 | – |
| COC(=O)Oc1ccc(COP(=O)(OCc2ccc(OC(=O)OC)cc2)OP(=O)(O)OP(=O)(O)OC[C@@H]2C=C[C@H](n3cc(C)c(=O)[nH]c3=O)O2)cc1 [3l, γ-Bis-(4-methyloxycarbonyloxybenzyl)-d4TTP] | 24 | 200 | 3.8 | 177 | 0.4 | 0.92 ± 0.12 | > 10 | 0.97 | 16 ± 1 | – |
| CCCCOC(=O)N(C)CCN(C)C(=O)Oc1ccc(COP(=O)(OCc2ccc(OC(=O)N(C)CCN(C)C(=O)OCCCC)cc2)OP(=O)(O)OP(=O)(O)OCC2C=CC(n3cc(C)c(=O)[nH]c3=O)O2)cc1 (stereo not shown) [3o, γ-Bis-(4-(butyl-ethane-1,2-diylbis(methylcarbamate))-oxybenzyl)-d4TTP] | 27 | – | – | – | – | – | – | – | – | – |
| CCCCCCCCOC(=O)N(C)CCN(C)C(=O)Oc1ccc(COP(=O)(OCc2ccc(OC(=O)N(C)CCN(C)C(=O)OCCCCCCCC)cc2)OP(=O)(O)OP(=O)(O)OCC2C=CC(n3cc(C)c(=O)[nH]c3=O)O2)cc1 (stereo not shown) [3p, γ-Bis-(4-(octyl-ethane-1,2-diylbis(methylcarbamate))-oxybenzyl)-d4TTP] | 48 | – | – | – | – | – | – | 5.6 | – | – |
| CCCCCCCCCCCCOC(=O)N(C)CCN(C)C(=O)Oc1ccc(COP(=O)(OCc2ccc(OC(=O)N(C)CCN(C)C(=O)OCCCCCCCCCCCC)cc2)OP(=O)(O)OP(=O)(O)OCC2C=CC(n3cc(C)c(=O)[nH]c3=O)O2)cc1 (stereo not shown) [3q, γ-Bis-(4-(dodecyl-ethane-1,2-diylbis(methylcarbamate))-oxybenzyl)-d4TTP] | 48 | – | – | – | – | – | – | – | – | – |
| CC(=O)Oc1ccc(COP(=O)(O)OP(=O)(O)OP(=O)(O)OC[C@@H]2C=C[C@H](n3cc(C)c(=O)[nH]c3=O)O2)cc1 [4a, γ-Mono-(4-acetyloxybenzyl)-d4TTP] | – | 95 | – | 108 | – | – | – | 0.040 | – | – |
| CCCCCCCCC(=O)Oc1ccc(COP(=O)(O)OP(=O)(O)OP(=O)(O)OC[C@@H]2C=C[C@H](n3cc(C)c(=O)[nH]c3=O)O2)cc1 [4e, γ-Mono-(4-nonanoyloxybenzyl)-d4TTP] | – | 237 | – | 1.5 | – | – | – | 1.8 | – | – |
| CCCCCCCCCCCCCCCCCC(=O)Oc1ccc(COP(=O)(O)OP(=O)(O)OP(=O)(O)OC[C@@H]2C=C[C@H](n3cc(C)c(=O)[nH]c3=O)O2)cc1 [4j, γ-Mono-(4-octadecanoyloxybenzyl)-d4TTP] | – | 637 | – | 57 | – | – | – | 4.6 | – | – |
| Cc1cn([C@H]2C=C[C@@H](COP(=O)(O)OP(=O)(O)OP(=O)(O)O)O2)c(=O)[nH]c1=O [d4TTP 19, reference compound] | – | – | – | – | – | – | – | – | – | 0.63 |

The next lines start with results.

| t1/2(1) PBS, pH=7.3 [1] [h] | t1/2(2) PBS, pH=7.3 [1] [h] | t1/2(1) PLE (pig liver esterase (PLE)) [h] | t1/2(2) PLE (pig liver esterase (PLE)) [h] | EC50 (HIV-1(IIIB)) [µM] | EC50 (HIV-2(ROD) [2]) [µM] | EC50 (HIV-2(ROD) [3]) [µM] | t1/2(1) CEM [4] [h] | SMILES | CC50 (CD4+ T-cell (CEM)) [µM] | t1/2 in cell extracts ([4]; degradation of the nucleotide in CEM cell extracts) [h] |
| --- | --- | --- | --- | --- | --- | --- | --- | --- | --- | --- |
| 22 | 270 | 0.063 | 7.7 | 0.4 | 1.05 ± 0.3 | > 10 | 0.43 | CCCCC(=O)Oc1ccc(COP(=O)(OCc2ccc(OC(=O)CCCC)cc2)OP(=O)(O)OP(=O)(O)OC[C@@H]2C=C[C@H](n3cc(C)c(=O)[nH]c3=O)O2)cc1 [3c, γ-Bis-(4-pentanoyloxybenzyl)-d4TTP] | 58 ± 3 | – |
| 26 | 350 | 0.013 | 1.6 | 0.36 ± 0.06 | 0.94 ± 0.16 | 10 | 0.98 | CCCCCCC(=O)Oc1ccc(COP(=O)(OCc2ccc(OC(=O)CCCCCC)cc2)OP(=O)(O)OP(=O)(O)OC[C@@H]2C=C[C@H](n3cc(C)c(=O)[nH]c3=O)O2)cc1 [3d, γ-Bis-(4-heptanoyloxybenzyl)-d4TTP] | 74 ± 2 | – |
| 44 | 350 | 0.082 | 3.0 | 0.25 ± 0.07 | 0.33 ± 0.03 | 0.5 ± 0.14 | 2.8 | CCCCCCCCCC(=O)Oc1ccc(COP(=O)(OCc2ccc(OC(=O)CCCCCCCCC)cc2)OP(=O)(O)OP(=O)(O)OC[C@@H]2C=C[C@H](n3cc(C)c(=O)[nH]c3=O)O2)cc1 [3f, γ-Bis-(4-decanoyloxybenzyl)-d4TTP] | 34 ± 5 | – |
| 68 | 410 | 0.95 | 8.3 | 0.21 ± 0.01 | 0.27 ± 0.06 | 0.72 ± 0.16 | 2.2 | CCCCCCCCCCCC(=O)Oc1ccc(COP(=O)(OCc2ccc(OC(=O)CCCCCCCCCCC)cc2)OP(=O)(O)OP(=O)(O)OC[C@@H]2C=C[C@H](n3cc(C)c(=O)[nH]c3=O)O2)cc1 [3g, γ-Bis-(4-dodecanoyloxybenzyl)-d4TTP] | 26 | – |
| 90 | 355 | 30 | – | 0.5 ± 0.14 | 1.1 ± 0.23 | 1.63 ± 0.52 | 4.6 | CCCCCCCCCCCCCC(=O)Oc1ccc(COP(=O)(OCc2ccc(OC(=O)CCCCCCCCCCCCC)cc2)OP(=O)(O)OP(=O)(O)OC[C@@H]2C=C[C@H](n3cc(C)c(=O)[nH]c3=O)O2)cc1 [3h, γ-Bis-(4-tetradecanoyloxybenzyl)-d4TTP] | 28 ± 7 | – |
| 73 | 462 | 33 | – | 0.62 ± 0.3 | 0.66 ± 0.08 | 0.72 ± 0.16 | 5.3 | CCCCCCCCCCCCCCCC(=O)Oc1ccc(COP(=O)(OCc2ccc(OC(=O)CCCCCCCCCCCCCCC)cc2)OP(=O)(O)OP(=O)(O)OC[C@@H]2C=C[C@H](n3cc(C)c(=O)[nH]c3=O)O2)cc1 [3i, γ-Bis-(4-hexadecanoyloxybenzyl)-d4TTP] | 61 ± 3 | – |
| 50 | 583 | 37 | – | 0.17 | 0.31 | 0.28 ± 0.04 | 13 | CCCCCCCCCCCCCCCCCC(=O)Oc1ccc(COP(=O)(OCc2ccc(OC(=O)CCCCCCCCCCCCCCCCC)cc2)OP(=O)(O)OP(=O)(O)OC[C@@H]2C=C[C@H](n3cc(C)c(=O)[nH]c3=O)O2)cc1 [3j, γ-Bis-(4-octadecanoyloxybenzyl)-d4TTP] | 29 ± 9 | – |
| 27 | 92 | 42 | – | 0.3 ± 0.01 | 0.47 ± 0.1 | 0.93 ± 0.47 | 4.3 | CCCCCCCC/C=C\CCCCCCCC(=O)Oc1ccc(COP(=O)(OCc2ccc(OC(=O)CCCCCCC/C=C\CCCCCCCC)cc2)OP(=O)(O)OP(=O)(O)OC[C@@H]2C=C[C@H](n3cc(C)c(=O)[nH]c3=O)O2)cc1 [3k, γ-Bis(4-(Z)-octadec-9-enoyloxybenzyl)-d4TTP] | 25 ± 1 | – |

Source: article PMC4640093, “Lipophilic prodrugs of nucleoside triphosphates as biochemical probes and potential antivirals” (Nature Communications, 2015)
